This note sets out measurements from patent publication US9708359B2, “Pyrrolopyrimidine nucleosides and analogs thereof” (Chimerix, Inc., priority 2015, dated 2017).

Molecules are shown by their SMILES.

One data set relates to HCMV. In words: Plaque-reduction assay for HCMV. The format is cell-based, human cytomegalovirus. The settings on record: Human betaherpesvirus 5, HFF cells. As to the method: (§1) Plaque-Reduction Assays for HSV-1, HSV-2, VZV and HCMV:
(§2) Monolayers of cells were prepared in six-well plates and incubated at to allow the cells to reach confluency. Media was then aspirated from the wells and of virus was added to each of three wells to yield 20-30 plaques in each well. The virus was allowed to adsorb to the cells for 1 h and the plates were rocked gently every 15 min to redistribute the media. Compounds were diluted in maintenance cell culture media consisting of MEM with Earl's salts supplemented with 2% FBS, L-glutamine, penicillin, and gentamycin. Solutions were added to duplicate wells and the plates were incubated for various times, depending on the virus used. The plaque-reduction assay with HSV-1 strain F was performed in a similar manner but with Vero cells infected one day after plating. For HSV-1 and -2, the monolayers were stained with 1% crystal violet in 20% methanol and the unbound dye removed by washing with dH2O. For assays with HCMV and VZV, the cell monolayer was stained with 1% Neutral Red solution for 4 h then the stain was aspirated and the cells were washed with PBS. For all assays, plaques were enumerated using a stereomicroscope and the concentration of compound that reduced plaque formation by 50% (EC50) was interpolated from the experimental data. […]
(Plaque reduction counts the foci of infection that form in a cell layer.)

The nature of data set [1]: Parallel cytotoxicity assay in A549 cells. To be noted: human, parallel to AdV assay. The format is cell-based. The procedure: (§3) Every antiviral assay included a parallel cytotoxicity assay with the same cells used for each virus, the same cell number, the same drug concentrations, and the same incubation times to provide the same drug exposure. To ensure that the cytotoxicity of all compounds could be compared directly, a standard neutral red uptake cytotoxicity assay for all compounds in confluent HFF cells with a 7 d incubation period was performed.
The primary screen was a cytopathic effect (CPE) reduction assay. Briefly, cultures of cells were infected with virus in the presence of test compounds and incubated for 4-7 days (depending on the specific virus/cells). […] Therefore, antiviral effect, or cytoprotection, was observed when compounds prevent virus replication. […] Cytoprotection and compound cytotoxicity were assessed by MTS dye reduction. The percent reduction in viral CPE (antiviral activity) and percent cell viability (cytotoxicity) were determined and reported.
The primary screen was a cytopathic effect (CPE) reduction assay. […] Cytoprotection and compound cytotoxicity were assessed by MTS (CellTiter®96 Reagent, Promega, Madison Wis.) dye reduction. The percent reduction in viral CPE (antiviral activity) and percent cell viability (cytotoxicity) were determined and reported.

A further data set deals with VEEV. As to the kind of experiment: microbe, parasite or virus in culture. The data set is classed as cell-based. The settings on record: Venezuelan equine encephalitis virus, Vero 76.
The nature of data set [2]: Cytotoxicity in lymphocyte assays, MOLT-3 cells. The format is cell-based. The settings on record: human, parallel to HHV-6B assay. The procedure:
as §3
Cytotoxicity in Lymphocyte Assays:
Cell viability in all assays with lymphocytes was assessed with a luminescent Cell Viability Assay. Briefly, assay plates were incubated at ambient temperature for 30 min then luminescent reagent was added to each well and the plates were mixed to lyse the cells. Plates were then incubated for at ambient temperature and the luminescence was quantified on a luminometer. Standard methods were used to calculate drug concentrations that inhibited the proliferation of cells by 50% (CC50).
Cell viability in all assays with lymphocytes was assessed with the CellTiter-Glo Luminescent Cell Viability Assay (Promega). […] Plates were then incubated for an additional 10 min at ambient temperature and the luminescence was quantified on a luminometer. […]

The subject of the next data set is HHV-8. In words: cells. To be noted: Homo sapiens, BCBL1; HHV-8, BCBL-1 cells. The data set is classed as cell-based, human herpes virus 8.
The next data set concerns POV-3. In words: microbe, parasite or virus in culture. To be noted: Enterovirus C, Vero 76. The format is cell-based, Poliovirus.
The test system of another data set is RAW cells. As to the kind of experiment: Conversion of Compound 1 to Triphosphate in RAW Cells.
For a further data set, the system named is Flu (H1N1). As to the kind of experiment: microbe, parasite or virus in culture. The settings on record: Influenza A virus, MDCK cells. The data set is classed as cell-based.
The next data set has as its system VZV. As to the kind of experiment: Plaque-reduction assay for VZV. The format is cell-based, varicella zoster virus. The settings on record: Human alphaherpesvirus 3, HFF cells. As to the method:
as §1, §2

In the next data set the test system is ENTV-71. In words: microbe, parasite or virus in culture. The format is cell-based. To be noted: Enterovirus, Vero 76; ENTV-71, Vero76 cells.
Another data set deals with VACV. In words: microbe, parasite or virus in culture. The format is cell-based. The settings on record: Orthopoxvirus vaccinia, HFF.
In the next data set the test system is human norovirus. In words: Efficacy of Compound 1 Against Human Norovirus (viral titer). The data set is classed as cell-based. The settings on record: cells pretreated with 25 μM compound for two hours; duplicate (FIGS. 4-6). The procedure:
The efficacy of compound 1 for inhibiting norovirus was compared to DMSO (as a control), compound 2, and 2′-C-methylcytidine triphosphate (2′CmeC TP). Cells were pretreated with 25 μM of experimental compound for two hours. Virus inoculum was added for two hours, and unbound virus washed off and fresh media and fresh experimental compound was added.

[3] abbreviates: RAW cells incubated with 0.5 μM Compound 1 for 48 hours.
Setting [4] is: RAW cells incubated with 1 μM Compound 1 for 48 hours.
Where [5] appears, read: RAW cells incubated with 5 μM Compound 1 for 48 hours.
Where [6] appears, read: RAW cells incubated with 10 μM Compound 1 for 48 hours.

For the compound `Cc1nc(N)c2c(C(N)=O)cn([C@@H]3O[C@H](CO)[C@@H](O)[C@H]3O)c2n1` [Compound 1, 4-amino-7-((2R,3R,4S,5R)-3,4-dihydroxy-5-(hydroxymethyl)tetrahydrofuran-2-yl)-2-methyl-7H-pyrrolo[2,3-d]pyrimidine-5-carboxamide], the EC50 with HCMV is greater than 60 µM; with VEEV it was greater than 100 µM; in the data set on HHV-8, greater than 12 µM; in the data set on POV-3 it was greater than 100 µM; in the data set on Flu (H1N1), greater than 100 µM; in the data set with VZV it was greater than 60 µM. Moreover, the values for the EC50 in the data set on ENTV-71 and in the data set with VACV were greater than 100 µM and 56.2 µM, respectively. For the same compound, the values for the CC50 in data set [1] and in data set [2] were greater than 100 µM and 44.7 µM, respectively. Moreover, the “Concentration (ng/1 × 10^6 cells)” value in the data set with RAW cells (setting [3]) is 0.17 ng/1 × 10^6 cells; with RAW cells (setting [4]), 0.13 ng/1 × 10^6 cells; in the data set on RAW cells (setting [5]) it was 0.65 ng/1 × 10^6 cells; with RAW cells (setting [6]), 1.02 ng/1 × 10^6 cells. For the same compound, the “Concentration (pmol/1 × 10^6 cells)” value with RAW cells (setting [3]) is given as 0.53 pmol/1 × 10^6 cells; in the data set on RAW cells (setting [4]), 0.40 pmol/1 × 10^6 cells; with RAW cells (setting [5]) it was 2.01 pmol/1 × 10^6 cells; in the data set with RAW cells (setting [6]), 3.15 pmol/1 × 10^6 cells. For the same compound, the viral titer entry in the data set on human norovirus is given as “increased less than one order of magnitude”.

As a reminder, the EC50 is the concentration at which the effect is half-maximal. As usually defined, the CC50 is the concentration that lowers cell viability or growth by half. The low end stands for harm at low concentration, the high end for better tolerance by the cells.
